We go through three compounds from patent US7122314B2, “Methods for detecting vancomycin-resistant microorganisms and compositions therefor” (ID Biomedical Corporation, priority 2002, dated 2006).

Data set [1] has as its system vanA and vanB genes. The data set can be described thus: Non-isotopic CPT-EIA VRE screen of enterococcal isolates. The settings on record: threshold 0.14 OD650; 27 isolates, five operators. From the text: This following example describes a rapid single probe non-isotopic CPT assay for screening dual VRE genes (vanA and vanB) from Enterococcal isolates. The non-isotopic VRE assay, which combines CPT with an enzyme immunoassay (CPT-EIA), is schematically illustrated in FIG. 2. Because of the lack of homology between the vanA and vanB genes, it was not possible to find a common sequence that was suitable for a perfectly complementary CPT chimeric probe. It was necessary to design a probe that had two mismatches to vanA in the 5′ DNA arm and two mismatches to vanB in the 3′ DNA arm. In spite of the mismatches, the probe worked well to discriminate vanA and vanB from vanC and VSE isolates.
The dual detection single chimeric probe specific for detecting vanA and vanB genes are synthesized, fluoresceinated and biotinylated as described in Example 1. The purified thermostable RNase H is prepared as described in Example 3.
The sources of Enterococcal isolates and growth conditions are as described in Example 2. Lysis
The cells are lysed by placing a 1-μL loopful of culture growth in 50 μL of Lysis Reagent. […]
After cycling, 3 drops (˜100 μL) of Cycle Stop Reagent containing sheep polyclonal antifluorescein-horseradish peroxidase (HRP) conjugate and 0.16% SDS in Peroxidase Stabilizing Buffer (DAKO, Mississauga, ON) is added to the cycling reaction. […] The plate is read with a Vmax plate reader at OD650. […]

The subject of data set [2] is VanA phenotype enterococci. Particulars: inducible resistance; cited from earlier work.

Bounds are passed on as bounds.

In data set [1], “5′-CAT GAT GTG TCG GTa aaa TCT GCA ATA GAG A-3′ (DNA CATGATGTGTCGGTAAAATCTGCAATAGAGA; scissile link, further chemistry not given here) [vanB110-m3]” had a sensitivity of 98.7% and a specificity of 100%. On to `CN[C@H](CC(C)C)C(=O)N[C@H]1C(=O)N[C@@H](CC(N)=O)C(=O)N[C@H]2C(=O)N[C@H]3C(=O)N[C@H](C(=O)N[C@H](C(=O)O)c4cc(O)cc(O)c4-c4cc3ccc4O)[C@H](O)c3ccc(c(Cl)c3)Oc3cc2cc(c3O[C@@H]2O[C@H](CO)[C@@H](O)[C@H](O)[C@H]2O[C@H]2C[C@](C)(N)[C@H](O)[C@H](C)O2)Oc2ccc(cc2Cl)[C@H]1O` [vancomycin], for which the MIC in data set [2] was at least 64 µg/mL. For teicoplanin, the MIC in data set [2] is at least 16 µg/mL.

Broadly, the MIC is the lowest concentration found to suppress growth.
